# In patent publication US6869964B2, “Heterocyclicsulfonamide hepatitis C virus inhibitors” (Bristol-Myers Squibb Company, priority 2002, dated 2005):
# Like-named read-outs stand apart in the source and are kept apart here.
# Tests used:
# human liver cathepsin B = target: T1, human liver cathepsin B (Homo sapiens, UniProt P07858); experiment: Specificity assay, human liver cathepsin B; format: biochemical; settings: 2 hr enzyme-inhibitor pre-incubation; solubility issues at 100 μM
# T1 construct: one cysteine protease: human liver cathepsin B; from tissue; host or cells: human liver (from the enzyme's name only)
# Method: (§1) The specificities of compounds of the present invention were determined against a variety of serine proteases: human sputum elastase (HS), porcine pancreatic elastase (PPE) and human pancreatic chymotrypsin and one cysteine protease: human liver cathepsin B. In all cases a 96-well plate format protocol using colorimetric p-nitroaniline (pNA) substrate specific for each enzyme was used as described previously (CT 2633 application) with some modifications to the serine protease assays.
# (§2) Each assay included a 2 hr enzyme-inhibitor pre-incubation at RT followed by addition of substrate and hydrolysis to ˜30% conversion as measured on a Spectramax Pro microplate reader. Compound concentrations varied from 100 to 0.4 μM depending on their potency.
# (§3) The percentage of inhibition was calculated using the formula: [1−((UVinh−UVblank)/(UVctl−UVblank))]×100
# (§4) A non-linear curve fit was applied to the inhibition-concentration data, and the 50% effective concentration (IC50) was calculated by the use of Excel Xl-fit software.
# [1] = target: T2, porcine pancreatic elastase (PPE) (Sus scrofa, UniProt P00772); experiment: Specificity assay, porcine pancreatic elastase; format: biochemical; settings: 2 hr enzyme-inhibitor pre-incubation
# T2 construct: porcine pancreatic elastase (PPE); from tissue; host or cells: porcine pancreas (from the enzyme's name only)
# Method: as §1, §2
# The final conditions and protocol for the serine protease assays were: • 50 mM Tris(hydroxymethyl)aminomethane hydrochloride (Tris-HCl) pH8, • 0.5M Sodium Sulfate (Na2SO4), 50 mM NaCl, 0.1 mM EDTA, 3% DMSO, • 0.01% Tween-20 with: 133 μM succ-AAA-pNA and 20 nM HS or 8 nM PPE; 100 μM succ-AAPF-pNA and 250 pM Chymotrypsin.
# as §3, §4
# [2] = system: HCV replicon in Huh7 cells; experiment: HCV replicon cell-based assay (FRET); parameters: species or system HCV strain 1B; settings: Hepatitis C virus
# Source text: HCV Replicon Cell-based Assay
# An HCV replicon whole cell system was established as described by Lohmann V, Korner F, Koch J, Herian U, Theilmann L, Bartenschlager R., Science 285(5424): 110-3 (1999). This system enabled us to evaluate the effects of our HCV Protease compounds on HICV RNA replication. Briefly, using the HCV strain 1B sequence described in the Lohmann paper (Assession number: AJ238799), an HCV cDNA was generated encoding the 5′ internal ribosome entry site (IRES), the neomycin resistance gene, the EMCV (encephalomyocarditis virus)-IRES and the HCV nonstructural proteins, NS3-NS5B, and 3′ non-translated region (NTR). In vitro transcripts of the cDNA were transfected into the human hepatoma cell line, Huh7. […] Resulting cell lines were characterized for positive and negative strand RNA production and protein production over time.
# Huh7 cells, constitutively expressing the HCV replicon, were grown in Dulbecco's Modified Eagle Media (DMEM) containing 10% Fetal calf serum (FCS) and 1 mg/ml G418 (Gibco-BRL). Cells were seeded the night before (1.5×10^4 cells/well) in 96-well tissue-culture sterile plates. Compound and no compound controls were prepared in DMEM containing 4% FCS, 1:100 Penicillin/Streptomysin, 1:100 L-glutamine and 5% DMSO in the dilution plate (0.5% DMSO final concentration in the assay). Compound/DMSO mixes were added to the cells and incubated for 4 days at 37° C. After 4 days, plates were rinsed thoroughly with Phosphate-Buffered Saline (PBS) (3 times 150 μl). The cells were lysed with 25 μl of a lysis assay reagent containing the FRET peptide (RET S1, as described for the in vitro enzyme assay). The lysis assay reagent was made from 5× cell Luciferase cell culture lysis reagent(Promega #E153A) diluted to 1× with distilled water, NaCl added to 150 mM final, the FRET peptide diluted to 10 μM final from a 2 mM stock in 100% DMSO. The plate was then placed into the Cytofluor 4000 instrument which had been set to 340 nm excitation/490 emission, automatic mode for 21 cycles and the plate read in a kinetic mode. EC50 determinations were carried out as described for the IC50 determinations.
# T2 sequence (P00772 27-266): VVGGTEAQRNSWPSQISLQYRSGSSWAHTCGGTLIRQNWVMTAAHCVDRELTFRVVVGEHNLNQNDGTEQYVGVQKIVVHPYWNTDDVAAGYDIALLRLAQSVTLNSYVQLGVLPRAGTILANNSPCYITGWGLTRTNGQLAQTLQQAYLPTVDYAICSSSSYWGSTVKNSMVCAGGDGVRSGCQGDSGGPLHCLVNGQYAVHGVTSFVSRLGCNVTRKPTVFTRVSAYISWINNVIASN
smiles,measurement,setting,value
"C=CC1C[C@]1(NC(=O)[C@@H]1C[C@@H](Oc2cc(-c3ccccc3)nc3cc(OC)ccc23)CN1C(=O)[C@@H](NC(=O)OC(C)(C)C)C(C)(C)C)C(=O)NS(=O)(=O)c1cccs1 (stereo in doubt) [Compound 1, (1-{4-(7-Methoxy-2-phenylquinolin-4-yloxy)-2-[1-(thiophene-2-sulfonylaminocarbonyl)-2-vinyl-cyclopropylcarbamoyl]-pyrrolidine-1-carbonyl}-2,2-dimethylpropyl)carbamic acid tert-butyl ester]",IC50,human liver cathepsin B,> 50 µM
same,IC50,[1],> 50 µM
same,EC50,"[2]; Huh-7, 96 h, Huh7 cells, 4 days, read-out: EC50 value in the replicon assay",0.055 µM
same,EC50,"[2]; Huh-7, replicon, activity range, read-out: EC50 a, b, c (Activity Table)",< 0.1 µM
